The values below come from PMC10004634 (PLOS ONE, 2023).

One assay addresses MYLK2 (Homo sapiens, UniProt Q9H1R3). The experiment in a line: biochemical. Further details: KINOMEscan scanMAX competition binding, DNA-tagged kinases, qPCR read-out, percent control at 300 nM. The settings on record: read-out: Percent control / Zanubrutinib.
A further assay deals with PIK3CB (Homo sapiens, UniProt P42338). In words: biochemical. Also on record: KINOMEscan scanMAX competition binding, DNA-tagged kinases, qPCR read-out, percent control at 300 nM. The conditions noted are these: read-out: Percent control / Zanubrutinib.
The next assay has as its target TNK1 (Homo sapiens, UniProt Q13470). In words: biochemical. Further details: KINOMEscan scanMAX competition binding, DNA-tagged kinases, qPCR read-out, percent control at 300 nM. The settings on record: read-out: Percent control / Zanubrutinib.
A further assay relates to U-2932 cells. In words: Western blot of BTK downstream signaling (p-PLCγ2, p-ERK1/2, p-AKT, p-IκBα). Type of assay: cell-based, human. The protocol: (§1) After culturing, cells were harvested and lysed with cell lysis buffer (Cell Signaling Technology, Inc.) containing 1 mM AEBSF (Calbiochem, #101500). As a positive control of BTK autophosphorylation for western blot analysis, TMD8 cells were treated with hydrogen peroxide (H2O2; final concentration: 6 mM) for 10 min, harvested as a control sample, and then lysed with the cell lysis buffer.
(§2) Each mixture of cells and cell lysis buffer was incubated on ice for 5 min, then centrifuged at 13400 × g and 4°C for 10 min. Total lysates were loaded on 4%–12% SDS-PAGE (Bio-Rad) and transferred to a polyvinylidene difluoride (PVDF) membrane (Immobilon-P Transfer Membrane, Millipore Corporation). The blot was incubated in Tris-buffered saline with Tween 20 (TBS-T, Cell Signaling Technology, Inc.) containing 2 w/v% ECL Advance Blocking Agent (GE Healthcare Life Sciences, b) for 1 h at room temperature. The blocked PVDF membranes were immersed in TBS-T and washed three times with shaking at room temperature for 10 min. The membrane was incubated with primary antibody in TBS-T containing 2 w/v% ECL Advance Blocking Agent with gentle agitation overnight at 5°C in a cold storage room or for 1 h at room temperature. Rabbit monoclonal anti- phosphorylated BTK (Tyr-223) antibody (p-BTK; Novus Biologicals, #NB100-79907), rabbit monoclonal BTK antibody (Cell Signaling Technology, Inc., #3533), rabbit polyclonal phosphorylated AKT (Ser-473) antibody (p-AKT; Cell Signaling Technology, Inc., #9271), rabbit monoclonal AKT (pan) (C67E7) antibody (Cell Signaling Technology, Inc., #4691), rabbit polyclonal phosphorylated p44/42 MAPK (ERK1/2) (Thr-202/Tyr-204) antibody (p-ERK1/2; Cell Signaling Technology, Inc., #9101), rabbit monoclonal p44/42 MAPK (ERK1/2) (137F5) antibody (Cell Signaling Technology, Inc., #4695), rabbit monoclonal phosphorylated PLCγ2 (Tyr-759) (E9E9Y) antibody (p-PLCγ2; Cell Signaling Technology, Inc., #50535), rabbit monoclonal PLCγ2 (E5U4T) antibody (Cell Signaling Technology, Inc., #55512), mouse monoclonal phosphorylated IκBα (Ser-32/36) (5A5) antibody (p-IκBα; Cell Signaling Technology, Inc., #9246), rabbit monoclonal IκBα (44D4) antibody (Cell Signaling Technology, Inc., #4812), rabbit polyclonal phosphorylated PKCβ (phospho-Thr-641) antibody (p-PKCβ; Signalway Antibody LLC, #11172), rabbit monoclonal IRF4 (D9P5H) antibody (Cell Signaling Technology, Inc., #15106), rabbit monoclonal BCL6 (D65C10) antibody (Cell Signaling Technology, Inc., #5650), rabbit monoclonal c-MYC (D84C12) antibody (Cell Signaling Technology, Inc., #5605), and rabbit monoclonal GAPDH (14C10) antibody (Cell Signaling Technology, Inc., #2118) were used. The PVDF membranes were immersed in TBS-T and washed three times with shaking at room temperature for 10 min, then incubated with secondary antibody with shaking for 1 h at room temperature. The secondary antibody used was anti-rabbit-IgG horseradish peroxidase (HRP)-linked antibody (Cell Signaling Technology, #7074) or goat anti-rabbit immunoglobulins/HRP (Dako, P0448). The PVDF membranes were washed three times with shaking at room temperature for 10 min and were treated with ECL^TM Advance Western Blotting Detection Kit (GE Healthcare Life Sciences, #RPN2135) for chemiluminescent detection according to the manufacturer’s instruction. Lumino-image analyzer (LAS-1000 Plus system, Fuji Photo Film Co., Ltd.) and Image Reader LAS-1000 Lite version 1.3 (Fuji Photo Film Co., Ltd.) were used to visualize bands. The densitometry analysis described the ratio of phosphorylated to total BTK protein. […] 5.04 (GraphPad Software, Inc.).
(Immunoblotting shows a protein as a band on a membrane.)

A further assay deals with TMD8 cells. Described as above. Type of assay: cell-based, human. The protocol:
as §1, §2

A further assay has as its system TMD8 xenograft tumor. The experiment in a line: Gene expression microarray analysis of TMD8 xenograft tumors.
The test system of a further assay is B-cells in human PBMC. In words: PBMC stimulation assay, anti-IgM-stimulated B-cell activation (CD69). It counts as cell-based. The settings on record: anti-IgM 1 μg/mL, 22 h, read-out: IC50 of CD69 inhibition, anti-IgM-stimulated B-cell activation. The protocol: After culturing, the stimulated cells were stained with fluorescently labeled CD3, CD20, and CD69 antibodies. B-cells (identified by gating CD20-positive and CD3-negative cells) and T-cells (identified by gating CD3-positive and CD20-negative cells) were analyzed by flow cytometry to monitor the expression of CD69. […] GraphPad Prism version 5.04 (GraphPad Software, Inc., San Diego, CA, USA) and its base settings were used for initial values and convergence conditions.

The target in a further assay is EIF2AK1 (Homo sapiens, UniProt Q9BQI3). In words: biochemical. The conditions noted are these: read-out: Percent control / Acalabrutinib. Also on record: KINOMEscan scanMAX competition binding, DNA-tagged kinases, qPCR read-out, percent control at 300 nM.
A further assay concerns the target CDK9 (Homo sapiens, UniProt P50750). The experiment in a line: biochemical. Further details: KINOMEscan scanMAX competition binding, DNA-tagged kinases, qPCR read-out, percent control at 300 nM. The conditions noted are these: read-out: Percent control / Acalabrutinib.
A further assay addresses T1, ASK1 (Homo sapiens, UniProt Q99683).
T1 construct: gene MAP3K5
The experiment in a line: biochemical. Further details: KINOMEscan scanMAX competition binding, DNA-tagged kinases, qPCR read-out, percent control at 300 nM. The settings on record: read-out: Percent control / Acalabrutinib.

Chain of EIF2AK1 (Q9BQI3 whole entry): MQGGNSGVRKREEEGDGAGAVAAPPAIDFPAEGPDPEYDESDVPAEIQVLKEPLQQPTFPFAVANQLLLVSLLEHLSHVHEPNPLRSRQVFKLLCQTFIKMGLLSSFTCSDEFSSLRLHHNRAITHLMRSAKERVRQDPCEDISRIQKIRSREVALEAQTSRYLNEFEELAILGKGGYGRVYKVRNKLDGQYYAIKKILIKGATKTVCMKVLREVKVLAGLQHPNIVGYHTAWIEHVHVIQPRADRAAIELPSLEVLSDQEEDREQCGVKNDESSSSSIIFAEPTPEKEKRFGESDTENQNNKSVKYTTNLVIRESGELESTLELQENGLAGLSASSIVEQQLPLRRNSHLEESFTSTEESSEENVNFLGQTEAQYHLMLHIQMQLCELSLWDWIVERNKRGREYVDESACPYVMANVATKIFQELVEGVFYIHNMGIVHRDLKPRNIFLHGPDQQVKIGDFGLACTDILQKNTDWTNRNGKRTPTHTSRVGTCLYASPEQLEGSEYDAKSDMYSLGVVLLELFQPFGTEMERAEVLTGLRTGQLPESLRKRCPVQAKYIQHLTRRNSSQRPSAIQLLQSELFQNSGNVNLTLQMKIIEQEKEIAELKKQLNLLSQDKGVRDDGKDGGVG
Chain of MYLK2 (Q9H1R3 whole entry): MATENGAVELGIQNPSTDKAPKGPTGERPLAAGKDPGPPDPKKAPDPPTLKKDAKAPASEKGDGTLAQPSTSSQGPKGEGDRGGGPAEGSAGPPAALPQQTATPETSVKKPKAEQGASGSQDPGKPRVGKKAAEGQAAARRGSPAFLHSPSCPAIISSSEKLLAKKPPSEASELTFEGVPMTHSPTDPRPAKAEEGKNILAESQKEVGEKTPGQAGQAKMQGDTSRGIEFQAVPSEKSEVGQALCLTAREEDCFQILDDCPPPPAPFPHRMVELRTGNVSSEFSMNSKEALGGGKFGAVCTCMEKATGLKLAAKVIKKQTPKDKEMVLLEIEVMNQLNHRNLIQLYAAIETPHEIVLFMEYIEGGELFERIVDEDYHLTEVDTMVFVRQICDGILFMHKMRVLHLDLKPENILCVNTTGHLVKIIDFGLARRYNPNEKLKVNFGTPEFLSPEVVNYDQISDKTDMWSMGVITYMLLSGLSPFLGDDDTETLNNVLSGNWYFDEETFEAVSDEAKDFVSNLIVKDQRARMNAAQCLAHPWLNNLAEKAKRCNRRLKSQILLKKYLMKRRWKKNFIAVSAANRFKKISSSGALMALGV
Chain of TNK1 (Q13470 whole entry): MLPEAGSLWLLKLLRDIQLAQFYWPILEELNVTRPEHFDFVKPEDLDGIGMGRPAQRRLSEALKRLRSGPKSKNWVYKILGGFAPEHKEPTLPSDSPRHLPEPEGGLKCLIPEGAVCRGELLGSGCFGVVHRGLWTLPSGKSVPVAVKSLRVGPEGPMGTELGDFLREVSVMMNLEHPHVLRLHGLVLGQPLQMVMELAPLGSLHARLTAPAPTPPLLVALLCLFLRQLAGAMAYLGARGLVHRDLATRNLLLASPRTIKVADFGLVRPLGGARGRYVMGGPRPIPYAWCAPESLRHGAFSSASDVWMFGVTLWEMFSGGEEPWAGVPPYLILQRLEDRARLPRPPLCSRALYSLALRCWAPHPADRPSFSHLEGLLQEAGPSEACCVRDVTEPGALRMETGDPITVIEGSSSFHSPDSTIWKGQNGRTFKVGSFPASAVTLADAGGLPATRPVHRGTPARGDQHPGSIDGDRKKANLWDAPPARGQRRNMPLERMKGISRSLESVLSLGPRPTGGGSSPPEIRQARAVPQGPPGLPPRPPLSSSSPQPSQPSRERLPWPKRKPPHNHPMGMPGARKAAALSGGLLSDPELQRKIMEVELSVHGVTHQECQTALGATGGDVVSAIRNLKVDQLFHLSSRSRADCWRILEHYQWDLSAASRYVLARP
Chain of CDK9 (P50750 whole entry): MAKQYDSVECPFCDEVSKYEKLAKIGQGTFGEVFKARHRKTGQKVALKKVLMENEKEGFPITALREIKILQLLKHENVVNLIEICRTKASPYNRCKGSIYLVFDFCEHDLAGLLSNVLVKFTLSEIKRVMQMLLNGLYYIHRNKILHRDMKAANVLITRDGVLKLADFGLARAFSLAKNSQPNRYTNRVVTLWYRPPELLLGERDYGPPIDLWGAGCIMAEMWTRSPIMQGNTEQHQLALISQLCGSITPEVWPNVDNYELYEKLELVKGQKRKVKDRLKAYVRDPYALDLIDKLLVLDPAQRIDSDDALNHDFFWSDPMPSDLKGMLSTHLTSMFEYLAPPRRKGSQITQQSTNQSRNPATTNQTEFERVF
T1 sequence (Q99683 whole entry): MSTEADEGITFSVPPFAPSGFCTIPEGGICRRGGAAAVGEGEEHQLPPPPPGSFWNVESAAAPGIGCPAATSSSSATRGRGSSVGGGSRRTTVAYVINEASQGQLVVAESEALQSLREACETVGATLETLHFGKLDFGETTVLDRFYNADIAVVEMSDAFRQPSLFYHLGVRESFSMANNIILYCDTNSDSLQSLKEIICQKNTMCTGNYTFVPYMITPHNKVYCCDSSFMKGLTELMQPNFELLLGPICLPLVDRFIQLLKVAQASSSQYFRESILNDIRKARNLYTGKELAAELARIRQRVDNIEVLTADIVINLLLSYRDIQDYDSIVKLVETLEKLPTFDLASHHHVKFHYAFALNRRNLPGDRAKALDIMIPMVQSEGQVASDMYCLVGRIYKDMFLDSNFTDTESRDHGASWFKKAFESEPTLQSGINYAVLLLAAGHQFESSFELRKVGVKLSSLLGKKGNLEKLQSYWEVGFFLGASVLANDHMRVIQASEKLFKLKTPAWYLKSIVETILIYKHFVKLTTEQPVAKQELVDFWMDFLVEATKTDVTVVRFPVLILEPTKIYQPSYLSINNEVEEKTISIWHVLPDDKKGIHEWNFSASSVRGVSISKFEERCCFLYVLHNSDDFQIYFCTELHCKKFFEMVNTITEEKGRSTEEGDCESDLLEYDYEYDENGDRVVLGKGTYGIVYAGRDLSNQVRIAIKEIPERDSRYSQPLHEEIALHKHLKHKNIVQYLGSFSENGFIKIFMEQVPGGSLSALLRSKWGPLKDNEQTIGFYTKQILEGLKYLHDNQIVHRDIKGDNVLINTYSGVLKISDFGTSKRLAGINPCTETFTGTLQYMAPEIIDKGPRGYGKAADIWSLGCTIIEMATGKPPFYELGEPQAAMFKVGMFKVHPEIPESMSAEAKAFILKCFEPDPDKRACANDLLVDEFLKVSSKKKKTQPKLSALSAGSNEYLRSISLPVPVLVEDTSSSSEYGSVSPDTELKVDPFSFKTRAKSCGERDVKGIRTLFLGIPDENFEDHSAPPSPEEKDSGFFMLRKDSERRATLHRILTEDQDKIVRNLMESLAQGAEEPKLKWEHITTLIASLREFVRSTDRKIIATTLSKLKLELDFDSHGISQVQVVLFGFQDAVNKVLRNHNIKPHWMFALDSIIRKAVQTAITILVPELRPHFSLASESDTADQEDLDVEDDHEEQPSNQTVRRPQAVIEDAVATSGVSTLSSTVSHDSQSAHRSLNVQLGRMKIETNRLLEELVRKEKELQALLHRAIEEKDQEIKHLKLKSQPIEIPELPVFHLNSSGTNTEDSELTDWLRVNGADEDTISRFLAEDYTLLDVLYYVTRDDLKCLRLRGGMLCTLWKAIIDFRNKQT
Chain of PIK3CB (P42338 whole entry): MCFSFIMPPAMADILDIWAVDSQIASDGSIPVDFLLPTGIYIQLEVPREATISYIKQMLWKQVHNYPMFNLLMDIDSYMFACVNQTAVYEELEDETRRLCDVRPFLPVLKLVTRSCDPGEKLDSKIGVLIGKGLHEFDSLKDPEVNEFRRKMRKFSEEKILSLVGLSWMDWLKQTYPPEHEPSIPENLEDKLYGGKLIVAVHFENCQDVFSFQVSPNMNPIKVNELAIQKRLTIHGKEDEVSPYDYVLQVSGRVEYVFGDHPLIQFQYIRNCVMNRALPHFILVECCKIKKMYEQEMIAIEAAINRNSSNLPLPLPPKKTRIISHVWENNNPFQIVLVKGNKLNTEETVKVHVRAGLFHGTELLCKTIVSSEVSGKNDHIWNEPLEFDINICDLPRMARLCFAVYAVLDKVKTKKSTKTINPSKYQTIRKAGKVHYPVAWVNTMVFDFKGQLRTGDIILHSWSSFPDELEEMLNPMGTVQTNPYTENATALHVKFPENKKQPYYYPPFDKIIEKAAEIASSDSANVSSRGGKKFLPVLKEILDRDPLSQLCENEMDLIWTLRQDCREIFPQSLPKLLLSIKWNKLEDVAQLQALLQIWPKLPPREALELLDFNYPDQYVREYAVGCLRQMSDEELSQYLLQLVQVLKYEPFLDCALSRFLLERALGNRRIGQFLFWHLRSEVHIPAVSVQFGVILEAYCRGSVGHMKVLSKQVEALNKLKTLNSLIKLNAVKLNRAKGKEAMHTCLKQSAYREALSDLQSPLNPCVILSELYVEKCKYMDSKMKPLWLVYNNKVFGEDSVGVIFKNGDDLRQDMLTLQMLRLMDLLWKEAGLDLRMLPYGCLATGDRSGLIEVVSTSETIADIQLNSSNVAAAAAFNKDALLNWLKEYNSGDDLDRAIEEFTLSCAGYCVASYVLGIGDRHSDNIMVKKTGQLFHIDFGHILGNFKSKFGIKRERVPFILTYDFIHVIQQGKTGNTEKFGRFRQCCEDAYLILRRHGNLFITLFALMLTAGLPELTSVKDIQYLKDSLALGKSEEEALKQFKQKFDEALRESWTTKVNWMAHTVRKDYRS
Protocol for TMD8 xenograft tumor: The TMD8 xenograft model was also used for microarray analysis. […] After 21 days of drug administration and 24 h after the final dose, the mice underwent laparotomy under isoflurane anesthesia and were sacrificed by exsanguination. Tumors were collected and quickly frozen with liquid nitrogen. RNA extraction and gene expression microarray analysis were performed at LSI Medience Corporation (Tokyo, Japan) using the miRNeasy® mini kit (Qiagen, Hilden, Germany) and the Low Input Quick Amp Labeling Kit (Agilent Technologies, Santa Clara, CA, USA) according to the manufacturers’ instructions. The DNA microarray results were processed using Expressionist Analyst (GeneData, Basel, Switzerland) and Excel.

As to `C=CC(=O)N1CCC([C@@H]2CCNc3c(C(N)=O)c(-c4ccc(Oc5ccccc5)cc4)nn32)CC1` [Zanubrutinib], the remaining binding at 0.3 µM at MYLK2 is 96%; at PIK3CB, 98%; at TNK1, 93%.

The term IC50 denotes the concentration that gives 50% inhibition. As to `CC#CC(=O)N1CC[C@@H](n2c(=O)n(-c3ccc(Oc4ccccc4)cc3)c3c(N)ncnc32)C1` [Tirabrutinib], in the assay on U-2932 cells (1 μM), the “AKT signaling (p-AKT Ser-473)” value is recorded as “did not indicate inhibition”. Moreover, the “p-IκBα at S32/36” value in the assay with U-2932 cells (1 μM, 4 h) was “inhibited”; with TMD8 cells (1 μM, 4 h) it was “inhibited”. Also, the p-ERK result is “not clear” with U-2932 cells (1 h, 10-300 nM); “significant inhibition” in the assay with U-2932 cells (4 h, 10-300 nM); “inhibited” in the assay on TMD8 cells (1 h, 10-300 nM). Besides, the “phosphorylation of PLCγ2 at Tyr-759” value with U-2932 cells (1 h, 10-300 nM) is reported as “inhibited”; with TMD8 cells (1 h, 10-300 nM) it was “inhibited”. In addition, the “p-AKT at Ser-473” value with TMD8 cells (1 μM) is listed as “inhibition”. In addition, the “number of downregulated probes” value with TMD8 xenograft tumor (10 mg/kg BID 21 days vs vehicle, fold change <0.5, P < 0.01) is 575. The “number of upregulated probes” value with TMD8 xenograft tumor (10 mg/kg BID 21 days vs vehicle, fold change >2, P < 0.01) was determined as 549. For the same molecule, the PRDM1 expression entry in the assay on TMD8 xenograft tumor (TMD8 xenograft, tirabrutinib vs vehicle) was “repressed”. For the same molecule, in the assay with B-cells in human PBMC, the half-maximal inhibitory concentration (IC50) turned out to be 13.8 nM.

On to `CC#CC(=O)N1CCC[C@H]1c1nc(-c2ccc(C(=O)Nc3ccccn3)cc2)c2c(N)nccn12` [Acalabrutinib], for which the values for the remaining binding at 0.3 µM on EIF2AK1, at CDK9 and at ASK1 were 85%, 94% and 93%, respectively.
